The supplement of paper PMC10307832

Columns and labels:
Assay in all cases: relative viability (nuclei count vs DMSO), 5 days (fraction); higher = more cells survive
Tanzisertib + AZD7762 = compound: O[C@H]1CC[C@H](Nc2ncc3nc(Nc4c(F)cc(F)cc4F)n([C@H]4CCOC4)c3n2)CC1 [Tanzisertib] + NC(=O)Nc1cc(-c2cccc(F)c2)sc1C(=O)N[C@H]1CCCNC1 [AZD7762] (partner 0.2 µM)
Procedure, shortened: (§1)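 Values are medians from duplicate plates. Each reflects relative viability, defined as the nuclei count of treated wells over that of vehicle wells. Lung cancer cell lines in 1536-well plates were pin-tool dosed one day after seeding with one drug alone or with a fixed anchor-drug dose plus five library-drug doses (not always all listed) in √10 steps, then fixed, stained and imaged at 4× after 5 days.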

[1] = compound: O[C@H]1CC[C@H](Nc2ncc3nc(Nc4c(F)cc(F)cc4F)n([C@H]4CCOC4)c3n2)CC1 [Tanzisertib] + CC(=O)c1c(C)c2cnc(Nc3ccc(N4CCNCC4)cn3)nc2n(C2CCCC2)c1=O [Palbociclib] (partner 0.5 µM)
Procedure, shortened: as §1

Tanzisertib + Trametinib = compound: O[C@H]1CC[C@H](Nc2ncc3nc(Nc4c(F)cc(F)cc4F)n([C@H]4CCOC4)c3n2)CC1 [Tanzisertib] + CC(=O)Nc1cccc(-n2c(=O)n(C3CC3)c(=O)c3c(Nc4ccc(I)cc4F)n(C)c(=O)c(C)c32)c1 [Trametinib] (partner 0.02 µM)
Procedure, shortened: as §1

[2] = compound: C1CNCCC1C2=CC(=NN2)C3=CC=NC=C3 + CS(=O)(=O)N1CCN(Cc2cc3nc(-c4cccc5[nH]ncc45)nc(N4CCOCC4)c3s2)CC1 [Pictilisib] (partner 1 µM)
Procedure, shortened: as §1

Cell Line	relative viability (Tanzisertib + AZD7762; first compound 0.08 µM)	relative viability (Tanzisertib + AZD7762; first compound 0.253 µM)	relative viability (Tanzisertib + AZD7762; first compound 0.8 µM)	relative viability (Tanzisertib + AZD7762; first compound 2.53 µM)	relative viability (Tanzisertib + AZD7762; first compound 8 µM)	relative viability ([1]; first compound 0.08 µM)	relative viability ([1]; first compound 0.253 µM)	relative viability ([1]; first compound 0.8 µM)	relative viability ([1]; first compound 2.53 µM)	relative viability ([1]; first compound 8 µM)	relative viability (Tanzisertib + Trametinib; first compound 0.08 µM)	relative viability (Tanzisertib + Trametinib; first compound 0.253 µM)	relative viability (Tanzisertib + Trametinib; first compound 0.8 µM)	relative viability (Tanzisertib + Trametinib; first compound 2.53 µM)	relative viability (Tanzisertib + Trametinib; first compound 8 µM)	relative viability ([2]; first compound 0.08 µM)	relative viability ([2]; first compound 0.8 µM)	relative viability ([2]; first compound 2.53 µM)	relative viability ([2]; first compound 8 µM)
NCI-H2126	1.07	1.03	1.04	1.05	1.05	0.34	0.355	0.349	0.37	0.324	0.56	0.597	0.611	0.546	0.59	0.521	0.492	0.55	0.539
NCI-H2170	1.09	0.897	0.791	1.02	0.676	0.415	0.39	0.36	0.428	0.406	0.989	0.965	0.927	0.926	0.874	0.278	0.304	0.309	0.364
NCI-H2347	0.866	0.718	0.825	0.762	0.662	0.466	0.457	0.452	0.444	0.435	0.256	0.255	0.261	0.259	0.29	0.661	0.672	0.651	0.494
NCI-H2405	0.767	0.794	0.757	0.795	0.617	0.508	0.502	0.55	0.546	0.47	0.766	0.559	0.565	0.52	0.44	0.442	0.441	0.373	0.366
NCI-H3122	1.13	1.03	1.03	0.981	0.993	0.23	0.187	0.213	0.159	0.206	0.262	0.201	0.273	0.245	0.237	0.59	0.549	0.694	0.587
PC-3 [JPC-3]	0.81	0.937	0.844	0.733	0.679	0.539	0.53	0.576	0.521	0.571	0.715	0.759	0.763	0.774	0.612	0.719	0.721	0.738	0.766
PC-14	0.476	0.531	0.367	0.386	0.213	0.681	0.533	0.589	0.532	0.208	0.886	0.673	0.805	0.666	0.295	0.716	0.763	0.842	0.661
RERF-LC-KJ	0.987	1.02	0.904	0.93	0.571	1.12	1.01	1.25	1.05	1.05	0.863	0.919	0.959	0.782	0.834	0.458	0.619	0.715	0.625
